Entries after “also recorded” stand apart in the source; their conditions may differ.
Legend:
[1] = tested on: Methylobacterium organophilum XX (ATCC 27886); assay: Oxidation of sec-alcohols to ketones by resting cell suspension; assay type: cell-based
Method: (§1) The pH of the nutrient medium was adjusted to 7.0 by the addition of acid or base and 50 ml. samples of the nutrient medium were charged into a plurality of 300 ml. shaker flasks. The shaker flasks were inoculated with an inoculating loop of cells from an agar plate containing homogeneous colonies of the microorganisms on the plate (the purity of the isolates was confirmed by microscopic examination). The isolates had been maintained on methanol (0.4% V/V) agar plates or on agar plates under an atmosphere of methane and air having a 1:1 V/V gas ratio which had been transferred every two weeks. For growth on methanol, the medium was supplemented with 0.4% methanol. For growth on methane, the gaseous phase of the inoculated flasks was replaced with a gas mixture comprised on methane and air having a ratio of 1:1 on a V/V basis. The inoculated flasks were sealed air-tight and were incubated on a rotary shaker of orbital radius 2.5 cm. at 250 rpm and at 30° C. for two days until turbidity in the medium had developed. The cells were harvested by centrifugation at 10,000×g. at 4° C. for 30 minutes. The cell pellet was washed twice with a 0.05 M phosphate buffer at a pH of 7.0 (containing 0.02 M MgCl2). The washed cells were then suspended in a 0.05 M phosphate buffer at pH 7.0.
(§2) A 0.5 ml. sample of each washed cell suspension (2 mg. cells) was put into 10 ml. vials at 4° C. which were sealed with a rubber cap. The gaseous phase of the vials was removed with vacuum and then was replaced with a gas mixture of the substrate reactant (i.e., alkane or secondary alcohol) and oxygen at a 1:1 V/V ratio. (In the case of a liquid substrate, i.e., secondary alcohol, 10 μl of the substrate was put in the 10 ml. vials). […] Samples of product (1-3 μl) were withdrawn periodically with a microsyringe and the products were analyzed by gas chromatography (ionization flame detector column).
(§3) The procedure in Example 1 was repeated wherein a plurality of the methane-utilizing methylotrophic microorganisms were each grown aerobically in a nutrient medium containing methane as the alcohol dehydrogenase enzyme inducer and as the major carbon and energy source for growth. The cells were harvested and washed as described in Example 1. The resting microbial cells of the induced methane-grown methane-utilizing methylotrophic microorganisms were then contacted with C3 -C6 secondary alcohols in a buffered solution by the procedure of Example 1.
(§4) In this example, the procedure in Example 1 was repeated except that a plurality of methane-utilizing methylotrophic microorganisms were each aerobically grown in a methanol-containing nutrient medium instead of a methane-containing medium. The nutrients in the medium were the same as indicated in Example 1 except that 0.4% V/V methanol was used as the alcohol dehydrogenase inducer and major source of carbon and energy for growth. Following growth, the cells were harvested and washed as described in Example 1. The resting cells of the induced methanol-grown methylotrophic microorganisms were then contacted with secondary alcohols in a buffered solution by the procedure described in Example 1.
(§5) The procedure in Example 1 was repeated except that the methylotrophic microorganisms were each aerobically grown in an alcohol dehydrogenase-inducing growth medium containing methylamine or methyl formate as the alcohol dehydrogenase enzyme inducer and growth substrate instead of methane. The nutrients in the medium were the same as indicated in Example 1 except that 0.4% V/V of the alcohol dehydrogenase-inducer growth substrate was used as the major carbon and energy source. The cells were harvested and washed as described in Example 1. The resting microbial cells were then contacted with C3 -C6 secondary alcohols in a buffered solution by the conversion procedure of Example 1.

[2] = tested on: Methylosinus trichosporium OB3b (NRRL B-11,196); assay: as above; assay type: cell-based
Method: as §1, §2, §3, §4, §5

[3] = tested on: cell extracts of Hansenula polymorpha ATCC 26,012; assay: NAD+-dependent oxidation of secondary alcohols by cell extracts of yeasts; assay type: biochemical; conditions: for Conversion Rate, secondary alcohol to methylketone: cell extracts, grown on methanol, NAD+, gas chromatography
[4] = tested on: cell suspensions of C1-utilizers; assay: Production of 2-butanone from 2-butanol / sec-alcohol oxidation by cell suspensions of the strains tested; assay type: cell-based; conditions: cell suspensions of C1-utilizers
Excerpt: The substrate specificity for the oxidation of C3 -C6 secondary alcohols by the strains of C1 -utilizers was studied.

[5] = tested on: Methylomonas albus BG8 (NRRL B-11,200); assay: Oxidation of sec-alcohols to ketones by resting cell suspension; assay type: cell-based
Method: as §1, §2, §3, §4

[6] = tested on: Methylosinus sporium 5 (NRRL B-11,197); assay: as above; assay type: cell-based
Method: as §1, §2, §3, §4

| Compound | Conversion Rates, sec-alcohol to methyl ketone ([1]; cells grown on methanol) | Conversion Rates, sec-alcohol to methyl ketone ([1]; methyl formate-grown) | Conversion Rates, sec-alcohol to methyl ketone ([1]; resting cells grown on methane) | Conversion Rates, sec-alcohol to methyl ketone ([2]; cells grown on methanol) | Conversion Rates, sec-alcohol to methyl ketone ([2]; methyl formate-grown) | Conversion Rates, sec-alcohol to methyl ketone ([2]; resting cells grown on methane) | Conversion Rate, secondary alcohol to methylketone [3] | substrate specificity: rate of oxidation of secondary alcohols (in words) [4] | Conversion Rates, sec-alcohol to methyl ketone ([5]; cells grown on methanol) | Conversion Rates, sec-alcohol to methyl ketone ([5]; resting cells grown on methane) | Conversion Rates, sec-alcohol to methyl ketone ([6]; cells grown on methanol) | Conversion Rates, sec-alcohol to methyl ketone ([6]; resting cells grown on methane) | specific activities ([3]; spectrophotometric, 2-butanol as substrate) |
| --- | --- | --- | --- | --- | --- | --- | --- | --- | --- | --- | --- | --- | --- |
| CCCC(C)O (centres unmarked) [2-Pentanol, 2-pentanol] | 0.9 μmoles/hr/mg protein | 1.0 μmoles/hr/mg protein | 0.82 μmoles/hr/mg protein | 2.9 μmoles/hr/mg protein | 1.5 μmoles/hr/mg protein | 2.7 μmoles/hr/mg protein | 1.0 μmoles/hr/mg Protein | oxidized at a much slower rate |  |  |  |  |  |
| CC(C)O [2-Propanol, 2-propanol] | 0.70 μmoles/hr/mg protein | 0.48 μmoles/hr/mg protein | 0.5 μmoles/hr/mg protein | 0.30 μmoles/hr/mg protein | 0.95 μmoles/hr/mg protein | 0.25 μmoles/hr/mg protein | 4.8 μmoles/hr/mg Protein | oxidized at higher rates | 1.5 μmoles/hr/mg protein | 1.3 μmoles/hr/mg protein | 0.45 μmoles/hr/mg protein | 0.30 μmoles/hr/mg protein |  |
| CCC(C)O (centres unmarked) [2-Butanol, 2-butanol] | 2.8 μmoles/hr/mg protein | 3.5 μmoles/hr/mg protein | 2.5 μmoles/hr/mg protein | 4.1 μmoles/hr/mg protein | 4.5 μmoles/hr/mg protein | 3.7 μmoles/hr/mg protein | 5.2 μmoles/hr/mg Protein | oxidized at the highest rate; also recorded: oxidized at higher rates | 3.0 μmoles/hr/mg protein | 3.5 μmoles/hr/mg protein | 3.5 μmoles/hr/mg protein | 3.0 μmoles/hr/mg protein | 85 nmoles NAD^+ reduced per min. per mg. protein |
| CCCCC(C)O (centres unmarked) [2-Hexanol, 2-hexanol] | 1.1 μmoles/hr/mg protein | 0.70 μmoles/hr/mg protein | 0.12 μmoles/hr/mg protein | 0.9 μmoles/hr/mg protein | 0.72 μmoles/hr/mg protein | 0.07 μmoles/hr/mg protein | 0.51 μmoles/hr/mg Protein | oxidized at a much slower rate |  |  |  |  |  |
